Results: publication PMC8490825 (Frontiers in Molecular Biosciences, 2021)
Where a SMILES comes first, the peptide text is derived from it. Bridges are numbered along the chain shown (N, C = ends).

Columns and labels:
hNaV1.7 = hNaV1.7 (Homo sapiens, UniProt Q15858); experiment: cell-based; format: cell-based
hNaV1.1 = hNaV1.1 (Homo sapiens, UniProt P35498); experiment: cell-based; format: cell-based

Chain of hNaV1.7 (Q15858 whole entry, looked up): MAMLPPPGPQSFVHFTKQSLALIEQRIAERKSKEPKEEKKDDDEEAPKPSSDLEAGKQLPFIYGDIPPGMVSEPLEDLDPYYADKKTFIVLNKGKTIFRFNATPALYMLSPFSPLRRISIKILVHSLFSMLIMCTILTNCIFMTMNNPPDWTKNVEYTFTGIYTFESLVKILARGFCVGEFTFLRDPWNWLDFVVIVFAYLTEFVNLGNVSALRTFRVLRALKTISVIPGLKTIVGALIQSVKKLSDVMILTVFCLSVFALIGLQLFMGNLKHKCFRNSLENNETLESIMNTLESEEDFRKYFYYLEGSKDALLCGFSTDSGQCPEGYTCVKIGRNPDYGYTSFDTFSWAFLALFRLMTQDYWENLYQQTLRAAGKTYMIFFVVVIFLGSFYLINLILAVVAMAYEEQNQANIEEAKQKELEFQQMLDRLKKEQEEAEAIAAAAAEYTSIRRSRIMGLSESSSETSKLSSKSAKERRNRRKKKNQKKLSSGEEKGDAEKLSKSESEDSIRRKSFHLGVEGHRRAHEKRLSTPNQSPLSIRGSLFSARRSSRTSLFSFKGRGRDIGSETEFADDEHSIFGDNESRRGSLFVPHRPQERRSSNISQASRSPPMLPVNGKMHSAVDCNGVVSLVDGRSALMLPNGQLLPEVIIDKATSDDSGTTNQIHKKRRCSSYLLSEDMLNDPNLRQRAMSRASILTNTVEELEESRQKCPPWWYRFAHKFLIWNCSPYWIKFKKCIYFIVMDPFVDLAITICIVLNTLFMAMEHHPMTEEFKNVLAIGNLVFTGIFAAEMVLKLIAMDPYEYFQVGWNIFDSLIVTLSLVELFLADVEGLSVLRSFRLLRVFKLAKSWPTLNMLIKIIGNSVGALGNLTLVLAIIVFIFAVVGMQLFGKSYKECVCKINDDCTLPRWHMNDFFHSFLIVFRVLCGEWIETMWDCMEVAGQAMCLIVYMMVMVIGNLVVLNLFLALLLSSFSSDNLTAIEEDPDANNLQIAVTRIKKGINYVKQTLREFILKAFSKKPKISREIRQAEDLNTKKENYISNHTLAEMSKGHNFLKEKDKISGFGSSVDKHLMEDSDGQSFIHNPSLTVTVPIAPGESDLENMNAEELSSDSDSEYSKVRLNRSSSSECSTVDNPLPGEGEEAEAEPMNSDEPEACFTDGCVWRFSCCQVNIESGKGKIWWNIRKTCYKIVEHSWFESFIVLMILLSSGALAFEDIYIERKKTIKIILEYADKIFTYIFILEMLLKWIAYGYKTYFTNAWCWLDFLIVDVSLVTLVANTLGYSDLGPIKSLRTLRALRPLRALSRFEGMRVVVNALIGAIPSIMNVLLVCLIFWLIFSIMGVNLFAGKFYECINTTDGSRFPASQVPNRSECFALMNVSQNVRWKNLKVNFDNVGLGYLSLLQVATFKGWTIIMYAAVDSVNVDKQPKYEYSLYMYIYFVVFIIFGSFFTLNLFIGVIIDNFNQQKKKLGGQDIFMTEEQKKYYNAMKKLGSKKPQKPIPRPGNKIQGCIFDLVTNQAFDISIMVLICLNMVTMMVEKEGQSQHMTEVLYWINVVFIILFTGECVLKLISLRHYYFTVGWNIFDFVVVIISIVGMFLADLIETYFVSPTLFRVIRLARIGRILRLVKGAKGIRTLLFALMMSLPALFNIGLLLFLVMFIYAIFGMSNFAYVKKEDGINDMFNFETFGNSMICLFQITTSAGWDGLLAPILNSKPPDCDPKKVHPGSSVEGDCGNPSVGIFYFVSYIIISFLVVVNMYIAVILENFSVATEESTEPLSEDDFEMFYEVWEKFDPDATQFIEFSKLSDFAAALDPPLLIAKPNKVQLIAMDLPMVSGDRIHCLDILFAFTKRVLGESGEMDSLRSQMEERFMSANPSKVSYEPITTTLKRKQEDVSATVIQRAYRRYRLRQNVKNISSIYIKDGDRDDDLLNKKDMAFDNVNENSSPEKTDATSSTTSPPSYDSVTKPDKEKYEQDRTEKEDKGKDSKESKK

Row | Compound | IC50 (hNaV1.7) | IC50 (hNaV1.1) | inhibition of NaV1.7, in words (hNaV1.7) | inhibition of NaV1.1, in words (hNaV1.1)
1 | CC(C)C[C@@H]1NC(=O)[C@@H](NC(=O)[C@H](CC(=O)O)NC(=O)[C@H](CC(=O)O)NC(=O)CN)CSSC[C@@H]2NC(=O)[C@@H]3CSSC[C@@H](C(=O)N[C@@H](CCCCN)C(=O)N[C@@H](Cc4ccc(O)cc4)C(=O)N[C@@H](CCC(N)=O)C(=O)N[C@@H](CC(C)C)C(=O)N[C@@H](Cc4c[nH]c5ccccc45)C(=O)O)NC(=O)[C@H](Cc4c[nH]c5ccccc45)NC(=O)[C@H](CCC(N)=O)NC(=O)[C@H](CC(=O)O)NC(=O)[C@H](CCCCN)NC(=O)[C@H](CCCNC(=N)N)NC(=O)[C@H](CO)NC(=O)[C@H](CSSC[C@H](NC(=O)[C@H](CO)NC(=O)[C@H](CO)NC(=O)[C@H](Cc4ccccc4)NC(=O)[C@H](C)NC(=O)CNC1=O)C(=O)N[C@@H](CC(=O)O)C(=O)N1CCC[C@H]1C(=O)N[C@@H](CC(N)=O)C(=O)N[C@@H](CC(N)=O)C(=O)N[C@@H](CC(=O)O)C(=O)N[C@@H](CCCCN)C(=O)N3)NC(=O)[C@H](CCCCN)NC(=O)[C@H](CCCNC(=N)N)NC(=O)[C@H](CC(N)=O)NC(=O)[C@@H]1CCCN1C2=O [Peptide M6A] (H-GDDCLGAFSSCDPNNDKCCPNRKCSRKDQWCKYQLW-OH; disulfide 4-19, 11-24, 18-31) | > 1000 nM | > 1000 nM |  | 
2 | CSCC[C@@H]1NC(=O)CNC(=O)[C@H](CC(C)C)NC(=O)[C@@H](NC(=O)[C@H](CC(=O)O)NC(=O)[C@H](CC(=O)O)NC(=O)CN)CSSC[C@@H]2NC(=O)[C@@H]3CSSC[C@@H](C(=O)N[C@@H](CCCCN)C(=O)N[C@@H](Cc4ccc(O)cc4)C(=O)N[C@@H](CCC(N)=O)C(=O)N[C@@H](CC(C)C)C(=O)N[C@@H](Cc4c[nH]c5ccccc45)C(=O)O)NC(=O)[C@H](Cc4c[nH]c5ccccc45)NC(=O)[C@H](CCC(N)=O)NC(=O)[C@H](CC(=O)O)NC(=O)[C@H](CCCCN)NC(=O)[C@H](CCCNC(=N)N)NC(=O)[C@H](C)NC(=O)[C@H](CSSC[C@H](NC(=O)[C@H](CO)NC(=O)[C@H](CO)NC(=O)[C@H](Cc4ccccc4)NC1=O)C(=O)N[C@@H](CC(=O)O)C(=O)N1CCC[C@H]1C(=O)N[C@@H](CC(N)=O)C(=O)N[C@@H](CC(N)=O)C(=O)N[C@@H](CC(=O)O)C(=O)N[C@@H](CCCCN)C(=O)N3)NC(=O)[C@H](CCCCN)NC(=O)[C@H](CCCNC(=N)N)NC(=O)[C@H](CC(N)=O)NC(=O)[C@@H]1CCCN1C2=O [Peptide S24A] (H-GDDCLGMFSSCDPNNDKCCPNRKCARKDQWCKYQLW-OH; disulfide 4-19, 11-24, 18-31) | 920 nM | > 1000 nM |  | 
3 | CSCC[C@@H]1NC(=O)CNC(=O)[C@H](CC(C)C)NC(=O)[C@@H](NC(=O)[C@H](CC(=O)O)NC(=O)[C@H](CC(=O)O)NC(=O)CN)CSSC[C@@H]2NC(=O)[C@@H]3CSSC[C@@H](C(=O)N[C@@H](C)C(=O)N[C@@H](Cc4ccc(O)cc4)C(=O)N[C@@H](CCC(N)=O)C(=O)N[C@@H](CC(C)C)C(=O)N[C@@H](Cc4c[nH]c5ccccc45)C(=O)O)NC(=O)[C@H](Cc4c[nH]c5ccccc45)NC(=O)[C@H](CCC(N)=O)NC(=O)[C@H](CC(=O)O)NC(=O)[C@H](CCCCN)NC(=O)[C@H](CCCNC(=N)N)NC(=O)[C@H](CO)NC(=O)[C@H](CSSC[C@H](NC(=O)[C@H](CO)NC(=O)[C@H](CO)NC(=O)[C@H](Cc4ccccc4)NC1=O)C(=O)N[C@@H](CC(=O)O)C(=O)N1CCC[C@H]1C(=O)N[C@@H](CC(N)=O)C(=O)N[C@@H](CC(N)=O)C(=O)N[C@@H](CC(=O)O)C(=O)N[C@@H](CCCCN)C(=O)N3)NC(=O)[C@H](CCCCN)NC(=O)[C@H](CCCNC(=N)N)NC(=O)[C@H](CC(N)=O)NC(=O)[C@@H]1CCCN1C2=O [Peptide K31A] (H-GDDCLGMFSSCDPNNDKCCPNRKCSRKDQWCAYQLW-OH; disulfide 4-19, 11-24, 18-31) | > 1000 nM | > 1000 nM | loss of activity | loss of activity
4 | CSCC[C@@H]1NC(=O)CNC(=O)[C@H](CC(C)C)NC(=O)[C@@H](NC(=O)[C@H](CC(=O)O)NC(=O)[C@H](CC(=O)O)NC(=O)CN)CSSC[C@@H]2NC(=O)[C@@H]3CSSC[C@@H](C(=O)N[C@@H](CCCCN)C(=O)N[C@@H](C)C(=O)N[C@@H](CCC(N)=O)C(=O)N[C@@H](CC(C)C)C(=O)N[C@@H](Cc4c[nH]c5ccccc45)C(=O)O)NC(=O)[C@H](Cc4c[nH]c5ccccc45)NC(=O)[C@H](CCC(N)=O)NC(=O)[C@H](CC(=O)O)NC(=O)[C@H](CCCCN)NC(=O)[C@H](CCCNC(=N)N)NC(=O)[C@H](CO)NC(=O)[C@H](CSSC[C@H](NC(=O)[C@H](CO)NC(=O)[C@H](CO)NC(=O)[C@H](Cc4ccccc4)NC1=O)C(=O)N[C@@H](CC(=O)O)C(=O)N1CCC[C@H]1C(=O)N[C@@H](CC(N)=O)C(=O)N[C@@H](CC(N)=O)C(=O)N[C@@H](CC(=O)O)C(=O)N[C@@H](CCCCN)C(=O)N3)NC(=O)[C@H](CCCCN)NC(=O)[C@H](CCCNC(=N)N)NC(=O)[C@H](CC(N)=O)NC(=O)[C@@H]1CCCN1C2=O [Peptide Y32A] (H-GDDCLGMFSSCDPNNDKCCPNRKCSRKDQWCKAQLW-OH; disulfide 4-19, 11-24, 18-31) | > 1000 nM | > 1000 nM |  | 
5 | CSCC[C@@H]1NC(=O)CNC(=O)[C@H](CC(C)C)NC(=O)[C@@H](NC(=O)[C@H](CC(=O)O)NC(=O)[C@H](CC(=O)O)NC(=O)CN)CSSC[C@@H]2NC(=O)[C@@H]3CSSC[C@@H](C(=O)N[C@@H](CCCCN)C(=O)N[C@@H](Cc4ccc(O)cc4)C(=O)N[C@@H](CCC(N)=O)C(=O)N[C@@H](C)C(=O)N[C@@H](Cc4c[nH]c5ccccc45)C(=O)O)NC(=O)[C@H](Cc4c[nH]c5ccccc45)NC(=O)[C@H](CCC(N)=O)NC(=O)[C@H](CC(=O)O)NC(=O)[C@H](CCCCN)NC(=O)[C@H](CCCNC(=N)N)NC(=O)[C@H](CO)NC(=O)[C@H](CSSC[C@H](NC(=O)[C@H](CO)NC(=O)[C@H](CO)NC(=O)[C@H](Cc4ccccc4)NC1=O)C(=O)N[C@@H](CC(=O)O)C(=O)N1CCC[C@H]1C(=O)N[C@@H](CC(N)=O)C(=O)N[C@@H](CC(N)=O)C(=O)N[C@@H](CC(=O)O)C(=O)N[C@@H](CCCCN)C(=O)N3)NC(=O)[C@H](CCCCN)NC(=O)[C@H](CCCNC(=N)N)NC(=O)[C@H](CC(N)=O)NC(=O)[C@@H]1CCCN1C2=O [Peptide L34A] (H-GDDCLGMFSSCDPNNDKCCPNRKCSRKDQWCKYQAW-OH; disulfide 4-19, 11-24, 18-31) | > 1000 nM | > 1000 nM |  | 
6 | CSCC[C@@H]1NC(=O)CNC(=O)[C@H](CC(C)C)NC(=O)[C@@H](NC(=O)[C@H](CC(=O)O)NC(=O)[C@H](CC(=O)O)NC(=O)CN)CSSC[C@@H]2NC(=O)[C@@H]3CSSC[C@@H](C(=O)N[C@@H](CCCCN)C(=O)N[C@@H](Cc4ccc(O)cc4)C(=O)N[C@@H](CCC(N)=O)C(=O)N[C@@H](CC(C)C)C(=O)N[C@@H](Cc4c[nH]c5ccccc45)C(=O)O)NC(=O)[C@H](Cc4c[nH]c5ccccc45)NC(=O)[C@H](CCC(N)=O)NC(=O)[C@H](CC(=O)O)NC(=O)[C@H](CCCCN)NC(=O)[C@H](CCCNC(=N)N)NC(=O)[C@H](CO)NC(=O)[C@H](CSSC[C@H](NC(=O)[C@H](CO)NC(=O)[C@H](CO)NC(=O)[C@H](Cc4ccccc4)NC1=O)C(=O)N[C@@H](CC(=O)O)C(=O)N[C@@H](C)C(=O)N[C@@H](CC(N)=O)C(=O)N[C@@H](CC(N)=O)C(=O)N[C@@H](CC(=O)O)C(=O)N[C@@H](CCCCN)C(=O)N3)NC(=O)[C@H](CCCCN)NC(=O)[C@H](CCCNC(=N)N)NC(=O)[C@H](CC(N)=O)NC(=O)[C@@H]1CCCN1C2=O [Peptide P12A] (H-GDDCLGMFSSCDANNDKCCPNRKCSRKDQWCKYQLW-OH; disulfide 4-19, 11-24, 18-31) | > 1000 nM | > 1000 nM |  | 
7 | CSCC[C@@H]1NC(=O)CNC(=O)[C@H](CC(C)C)NC(=O)[C@@H](NC(=O)[C@H](CC(=O)O)NC(=O)[C@H](CC(=O)O)NC(=O)CN)CSSC[C@@H]2NC(=O)[C@@H]3CSSC[C@@H](C(=O)N[C@@H](CCCCN)C(=O)N[C@@H](Cc4ccc(O)cc4)C(=O)N[C@@H](C)C(=O)N[C@@H](CC(C)C)C(=O)N[C@@H](Cc4c[nH]c5ccccc45)C(=O)O)NC(=O)[C@H](Cc4c[nH]c5ccccc45)NC(=O)[C@H](CCC(N)=O)NC(=O)[C@H](CC(=O)O)NC(=O)[C@H](CCCCN)NC(=O)[C@H](CCCNC(=N)N)NC(=O)[C@H](CO)NC(=O)[C@H](CSSC[C@H](NC(=O)[C@H](CO)NC(=O)[C@H](CO)NC(=O)[C@H](Cc4ccccc4)NC1=O)C(=O)N[C@@H](CC(=O)O)C(=O)N1CCC[C@H]1C(=O)N[C@@H](CC(N)=O)C(=O)N[C@@H](CC(N)=O)C(=O)N[C@@H](CC(=O)O)C(=O)N[C@@H](CCCCN)C(=O)N3)NC(=O)[C@H](CCCCN)NC(=O)[C@H](CCCNC(=N)N)NC(=O)[C@H](CC(N)=O)NC(=O)[C@@H]1CCCN1C2=O [Peptide Q33A] (H-GDDCLGMFSSCDPNNDKCCPNRKCSRKDQWCKYALW-OH; disulfide 4-19, 11-24, 18-31) | 99 nM | 163 nM |  | 
8 | CSCC[C@@H]1NC(=O)CNC(=O)[C@H](CC(C)C)NC(=O)[C@@H](NC(=O)[C@H](CC(=O)O)NC(=O)[C@H](CC(=O)O)NC(=O)CN)CSSC[C@@H]2NC(=O)[C@@H]3CSSC[C@@H](C(=O)N[C@@H](CCCCN)C(=O)N[C@@H](Cc4ccc(O)cc4)C(=O)N[C@@H](CCC(N)=O)C(=O)N[C@@H](CC(C)C)C(=O)N[C@@H](C)C(=O)O)NC(=O)[C@H](Cc4c[nH]c5ccccc45)NC(=O)[C@H](CCC(N)=O)NC(=O)[C@H](CC(=O)O)NC(=O)[C@H](CCCCN)NC(=O)[C@H](CCCNC(=N)N)NC(=O)[C@H](CO)NC(=O)[C@H](CSSC[C@H](NC(=O)[C@H](CO)NC(=O)[C@H](CO)NC(=O)[C@H](Cc4ccccc4)NC1=O)C(=O)N[C@@H](CC(=O)O)C(=O)N1CCC[C@H]1C(=O)N[C@@H](CC(N)=O)C(=O)N[C@@H](CC(N)=O)C(=O)N[C@@H](CC(=O)O)C(=O)N[C@@H](CCCCN)C(=O)N3)NC(=O)[C@H](CCCCN)NC(=O)[C@H](CCCNC(=N)N)NC(=O)[C@H](CC(N)=O)NC(=O)[C@@H]1CCCN1C2=O [Peptide W35A] (H-GDDCLGMFSSCDPNNDKCCPNRKCSRKDQWCKYQLA-OH; disulfide 4-19, 11-24, 18-31) | > 1000 nM | > 1000 nM |  | 
